Results reported in patent publication US9598434B2, “Benzazepine compound” (Astellas Pharma Inc., priority 2010, dated 2017).
Where two headings read alike, the source gives them in different places.

Key:
human 5-HT2C receptor = target: T1, human 5-HT2C receptor (Homo sapiens, UniProt P28335); test: Evaluation of 5-HT2C receptor agonist activity (intracellular calcium increase, FLIPR, CHO cells stably expressing the receptor); format: cell-based; conditions: for Emax: CHO, read-out: 5-HT2C agonist activity Emax
T1 construct: expressed in transfected cells
T1 sequence (P28335 33-458): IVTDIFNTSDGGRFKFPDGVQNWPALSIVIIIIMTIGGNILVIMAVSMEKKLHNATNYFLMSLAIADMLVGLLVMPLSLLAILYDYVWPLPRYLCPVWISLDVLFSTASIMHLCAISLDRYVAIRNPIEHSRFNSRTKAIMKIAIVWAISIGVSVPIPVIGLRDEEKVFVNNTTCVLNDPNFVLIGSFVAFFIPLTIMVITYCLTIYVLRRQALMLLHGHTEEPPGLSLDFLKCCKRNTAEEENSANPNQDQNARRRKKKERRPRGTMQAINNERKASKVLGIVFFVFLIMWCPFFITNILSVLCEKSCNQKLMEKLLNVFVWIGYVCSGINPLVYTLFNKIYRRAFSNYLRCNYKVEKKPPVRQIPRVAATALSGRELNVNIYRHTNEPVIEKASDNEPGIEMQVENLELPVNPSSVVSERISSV
Description: The agonist activity of the compound of the formula (I) on the 5-HT2C receptor was confirmed by the method shown below.
The human 5-HT2C receptor agonist activity was evaluated by measuring the increase of the ligand-dependent intracellular calcium concentration. CHO cells which stably expressing a human 5-HT2C receptor were used. The receptor-expressing cells were prepared by transfecting the genes of the human 5-HT2C receptor (Accession numbers: AF498983 (5-HT2C)) into CHO cells (dihydrofolic acid-deficient strain, DS Pharma Biomedical Co., Ltd.)) using a pEF-BOS vector (Nucleic Acids Research, vol. 18, No. 17). After transcription, the 5-HT2C is known to be subjected to RNA editing to cause differences in three kinds of amino acids, resulting in fourteen receptor isoforms. Among them, cells stably expressing an INI type of 5-HT2C receptor which had not been subjected to editing were used. Cells used for evaluation were cultured in a 10% fetal bovine serum (FBS)-containing medium (trade name: α-MEM, Invitrogen) at 37° C. and 5% carbon dioxide. On the day before the evaluation, the cells were suspended in a serum-free medium (trade name: CD-CHO, Invitrogen) containing 8 mM L-glutamine (trade name: L-glutamine 200 mM, Invitrogen, added to the medium at a final concentration of 8 mM) and dispensed into a 96-well poly-D-lysine-coated plate (trade name: Biocoat PDL96W Black/Clear, Japan Becton, Dickinson and Company)) at 4×10^4 cells/well and cultured at 37° C. and 5% carbon dioxide overnight. A solution including a washing solution (mixture of Hank's Balanced Salt Solution (HBSS)-sodium hydroxide (NaOH), 20 mM 2-[4-(2-hydroxyethyl)-1-piperazinyl]ethanesulfonic acid (HEPES)-sodium hydroxide (NaOH), 2.5 mM probenecid, and 0.1% bovine serum albumin (BSA)), and a 4 μM fluorescent reagent (trade name: Fluo4-AM, Dojindo Co., Ltd.) was used as a loading buffer and the medium of the 96-well plate which had been cultured overnight was replaced with a loading buffer. After leaving to stand (with light-shielding) at room temperature for 3 hours, the cells were washed with a plate washer (trade name: ELx405, BioTek Instruments, Inc.) in which a washing solution had been set up. The plates of the washed cells were set up in a system for measuring a calcium (Ca) concentration in a cell (trade name: FLIPR, Molecular Devices, Inc.). In this device, a test compound that had been dissolved in dimethyl sulfoxide and diluted in the washing solution at a predetermined concentration was added and set up to measure a change in the Ca concentrations in a cell. The difference between a maximum value and a minimum value in the change of the intracellular Ca concentration was determined and kept as measurement data.
Taking the maximum reaction of the 5-HT (agonist action with addition of 5-HT 10 μM) as 100% and the reaction of a solvent alone as 0%, the efficacy (Emax (%)) and potency (EC50 (nM)) of the present invention compound to the maximum reaction of the 5-HT were calculated with a logistic regression method.

[1] = system: Hartley female guinea pigs; test: Measurement of external urethral sphincter electromyography; format: in vivo, guinea pig; conditions: Cavia porcellus, read-out: external urethral sphincter electromyography activity
Text: The activating action of the compound of the formula (I) on the urethral sphincter electromyography was confirmed with the method shown below.
Hartley female guinea pigs with a body weight of 250 to 350 g were anesthetized with urethane (Sigma). The guinea pigs were fixed in a supine position and catheters (PE-50; Clay Adams) for administration of test compounds were inserted into the jugular vein. Further, a catheters (PE-160; Clay Adams), for an infusion of physiological saline into bladder and measurement of the intravesical pressure, were inserted through an incision into the dome of the bladder. Further, in order to measure the external urethral sphincter electromyography, two electrodes were inserted into both the left and right sides of the urethral opening to the urethral sphincter. The electrodes for measuring base voltages were placed under the skin of the hind part. The bladder catheter was branched over a three-way stopcock, and one was connected with a 50 mL syringe (Terumo) fixed to an infusion pump (Terumo). The other was connected to a pressure transducer (DX-100; Nihon Kohden Corporation) to transfer the signal of the transducer through an amplifier (AP-630G; Nihon Kohden Corporation) and a data acquisition system (PowerLab; AD Instruments) to a computer and record on a hard disk. The electrodes for electromyography measurement were connected to a control unit (JB-101J; Nihon Kohden Corporation) to transfer the signal through an amplifier (AP-651J; Nihon Kohden Corporation) and a data acquisition system (PowerLab; AD Instruments) to a computer and record on a hard disk. Further, the data were analyzed on the computer using a software (Chart; AD Instruments). […] The electromyography activity was analyzed by taking the lowest potential amplitude as a standard during the stabilization period and using the firing frequency over the standard amplitude as an indicator. At internals between the respective urinations (urine filling phase), the activity of the urethral sphincter electromyography was analyzed and its average value was calculated. After the stabilization period, the solvent and the test compound were administered at an increased dose at an interval of 40 minutes through the catheter placed into the jugular vein. The urethral sphincter electromyography activity after the administration of the solvent was taken as 100% and the urethral sphincter electromyography activity after the administration of the test compound was denoted as a percentage (%) of the electromyography activity after the administration of the solvent.

[2] = CHO cells stably expressing INI type human 5-HT2C receptor, intracellular Ca increase, logistic regression, read-out: 5-HT2C agonist activity EC50
[3] = intravenous administration at 3 mg/kg, urethane-anesthetized guinea pigs, activity after solvent taken as 100%

## COCCCN1CCOc2cc3c(cc21)CCNCC3.O=C(O)/C=C/C(=O)O [Example 59]
other
  melting point: 141 to 145 °C
Human 5-HT2C receptor; [2]
  EC50: 7.1 nM
Human 5-HT2C receptor
  Emax: 108%
[1]; [3]
  response vs control in vivo at 3 mg/kg: ≥ 200%

## CCOCCN1CCOc2cc3c(c(C4CC4)c21)CCNCC3.O=C(O)/C=C/C(=O)O [Example 104]
other
  melting point: 140 to 145 °C
Human 5-HT2C receptor; [2]
  EC50: 1.1 nM
Human 5-HT2C receptor
  Emax: 107%
[1]; [3]
  response vs control in vivo at 3 mg/kg: ≥ 200%

## COCCCN1CCOc2cc3c(c(C4CC4)c21)CCNCC3.O=C(O)/C=C/C(=O)O [Example 106]
other
  melting point: 169 to 171 °C
Human 5-HT2C receptor; [2]
  EC50: 1.1 nM
Human 5-HT2C receptor
  Emax: 112%
[1]; [3]
  response vs control in vivo at 3 mg/kg: ≥ 200%

## FCCCN1CCOc2cc3c(c(C4CC4)c21)CCNCC3.O=C(O)/C=C/C(=O)O [Example 141]
other
  melting point: 144 to 147 °C
Human 5-HT2C receptor
  EC50: 0.36 nM
  Emax: 100%
[1]; iv
  response vs control in vivo at 3 mg/kg: ≥ 200%

## c1c2c(c(C3CC3)c3c1OCCN3C[C@@H]1CCCO1)CCNCC2 [Example 215]
other
  melting point: 154 to 156 °C
Human 5-HT2C receptor; [2]
  EC50: 1 nM
Human 5-HT2C receptor
  Emax: 96%
[1]; iv
  response vs control in vivo at 3 mg/kg: ≥ 200%

## CO[C@H](C)CN1CCOc2cc3c(c(C4CC4)c21)CCNCC3.O=C(O)/C=C/C(=O)O [Example 243]
other
  melting point: 133 to 136 °C
Human 5-HT2C receptor; [2]
  EC50: 0.53 nM
Human 5-HT2C receptor
  Emax: 96%
[1]; [3]
  response vs control in vivo at 3 mg/kg: ≥ 200%

## Clc1cccc(CN2CCOc3cc4c(c(C5CC5)c32)CCNCC4)c1.O=C(O)CCC(=O)O [Example 258]
other
  melting point: 139 to 141 °C
Human 5-HT2C receptor; [2]
  EC50: 1.9 nM
Human 5-HT2C receptor
  Emax: 97%
[1]; [3]
  response vs control in vivo at 3 mg/kg: ≥ 200%

## O=C(O)/C=C/C(=O)O.c1c2c(c(C3CC3)c3c1OCCN3CC1CCCOC1)CCNCC2 (centres unmarked) [Example 263]
other
  melting point: 186 to 189 °C
Human 5-HT2C receptor; [2]
  EC50: 2.8 nM
Human 5-HT2C receptor
  Emax: 96%
[1]; [3]
  response vs control in vivo at 3 mg/kg: ≥ 200%

## Fc1ccccc1CN1CCOc2cc3c(c(C4CC4)c21)CCNCC3.O=C(O)/C=C/C(=O)O [Example 265]
other
  melting point: 133 to 136 °C
Human 5-HT2C receptor; [2]
  EC50: 1.3 nM
Human 5-HT2C receptor
  Emax: 97%
[1]; [3]
  response vs control in vivo at 3 mg/kg: ≥ 200%

## O=C(O)/C=C/C(=O)O.c1ccc2c(c1)OCC(CN1CCOc3cc4c(c(C5CC5)c31)CCNCC4)O2 (centres unmarked) [Example 267]
other
  melting point: 179 to 182 °C
Human 5-HT2C receptor; [2]
  EC50: 0.51 nM
Human 5-HT2C receptor
  Emax: 99%
[1]; [3]
  response vs control in vivo at 3 mg/kg: ≥ 200%

## Cc1ccccc1CN1CCOc2cc3c(c(C4CC4)c21)CCNCC3.O=C(O)/C=C/C(=O)O [Example 276]
other
  melting point: 163 to 166 °C
Human 5-HT2C receptor; [2]
  EC50: 6.4 nM
Human 5-HT2C receptor
  Emax: 104%
[1]; [3]
  response vs control in vivo at 3 mg/kg: ≥ 200%

## Cc1cccc(CN2CCOc3cc4c(c(C5CC5)c32)CCNCC4)c1.O=C(O)/C=C/C(=O)O [Example 277]
other
  melting point: 192 to 195 °C
Human 5-HT2C receptor; [2]
  EC50: 2.3 nM
Human 5-HT2C receptor
  Emax: 95%
[1]; [3]
  response vs control in vivo at 3 mg/kg: ≥ 200%

## COCc1cccc(CN2CCOc3cc4c(c(C5CC5)c32)CCNCC4)c1.O=C(O)/C=C/C(=O)O [Example 288]
other
  melting point: 190 to 193 °C
Human 5-HT2C receptor; [2]
  EC50: 0.64 nM
Human 5-HT2C receptor
  Emax: 90%
[1]; [3]
  response vs control in vivo at 3 mg/kg: ≥ 200%

## Fc1ccc(Cl)cc1CN1CCOc2cc3c(c(C4CC4)c21)CCNCC3.O=C(O)/C=C/C(=O)O [Example 290]
other
  melting point: 165 to 168 °C
Human 5-HT2C receptor; [2]
  EC50: 3.8 nM
Human 5-HT2C receptor
  Emax: 93%
[1]; [3]
  response vs control in vivo at 3 mg/kg: ≥ 200%

## O=C(O)/C=C/C(=O)O.c1cc2c(cc1CN1CCOc3cc4c(c(C5CC5)c31)CCNCC4)OCCO2 [Example 291]
other
  melting point: 165 to 168 °C
Human 5-HT2C receptor; [2]
  EC50: 1.2 nM
Human 5-HT2C receptor
  Emax: 93%
[1]; [3]
  response vs control in vivo at 3 mg/kg: ≥ 200%

## COCCN1c2c(cc3c(c2C2CC2)CCNCC3)OC[C@@H]1C [Example 292]
Human 5-HT2C receptor; [2]
  EC50: 0.65 nM
Human 5-HT2C receptor
  Emax: 93%
[1]; [3]
  response vs control in vivo at 3 mg/kg: ≥ 200%

## N#Cc1cc(F)c(OCCN2CCOc3cc4c(c(C5CC5)c32)CCNCC4)c(F)c1 [Example 297]
Human 5-HT2C receptor; [2]
  EC50: 0.71 nM
Human 5-HT2C receptor
  Emax: 96%
[1]; [3]
  response vs control in vivo at 3 mg/kg: ≥ 200%

## COc1cccc(CN2CCOc3cc4c(c(C5CC5)c32)CCNCC4)c1 [Example 299]
Human 5-HT2C receptor; [2]
  EC50: 1 nM
Human 5-HT2C receptor
  Emax: 98%
[1]; [3]
  response vs control in vivo at 3 mg/kg: ≥ 200%

## Fc1cc(F)cc(CN2CCOc3cc4c(c(C5CC5)c32)CCNCC4)c1.O=C(O)/C=C/C(=O)O [Example 313]
other
  melting point: 191 to 194 °C
Human 5-HT2C receptor; [2]
  EC50: 4.2 nM
Human 5-HT2C receptor
  Emax: 97%
[1]; [3]
  response vs control in vivo at 3 mg/kg: ≥ 200%

## CCO[C@H](C)CN1CCOc2cc3c(c(C4CC4)c21)CCNCC3.O=C(O)/C=C/C(=O)O [Example 315]
other
  melting point: 157 to 160 °C
Human 5-HT2C receptor; [2]
  EC50: 2.8 nM
Human 5-HT2C receptor
  Emax: 108%
[1]; [3]
  response vs control in vivo at 3 mg/kg: ≥ 200%
